Activity calls are given as the source filed them.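 How the source made its calls: active means compounds whose fitted half-maximal concentration in the cell-protection dose series is at or below a set limit; inactive means the rest.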
test system: H9c2 cardiomyocytes, 2-deoxyglucose stress, ATP luminescence, 2 h; experiment: protection of cardiomyocytes from 2-deoxyglucose injury, dose response, cell-based, 2-deoxyglucose stress, uHTS hits (AID 588780)

Structure (SMILES) | IC50
Cc1cccc(NC(=O)COc2cccc3c2CCNC3=O)c1 | > 79 µM (inactive)
COc1ccc2c(c1OC)C(=O)N1c3ccccc3C(=O)N(c3ccccc3)C21 (stereo unspecified) | > 79 µM (inactive)
O=c1cc(-c2ccc([N+](=O)[O-])cc2)c2ccc(O)cc2o1 | > 79 µM (inactive)
Cc1cc(C)n2nc(C(=O)N/N=C/c3c4ccccc4cc4ccccc34)nc2n1 | > 79 µM (inactive)
CC(=O)c1cccc(-c2cnc3c(NC=O)cc(-c4ccc(F)cc4)cn23)c1 | > 79 µM (inactive)
NC(=O)c1oc2ccccc2c1NC(=O)c1ccco1 | 29.4 µM
COc1ccccc1C(=O)NC(=O)COC(=O)Cn1[nH]c(=O)c2ccccc2c1=O | > 79 µM (inactive)
CNS(=O)(=O)c1ccc2nc(NC(=O)/C=C/c3ccco3)sc2c1 | > 79 µM (inactive)
CC(C)(C)OC(=O)C[C@@H]1C/C=C\C[C@@H](CC(=O)N[C@@H](CO)Cc2ccccc2)C(=O)NC[C@@H](c2ccccc2)OC1=O | 11.9 µM
COc1cc(C(=O)N/N=C/c2sc(N3CCOCC3)nc2-c2ccccc2)cc(OC)c1OC | 25.8 µM
Cc1ccc(C)c(S(=O)(=O)N2CCN(C(=O)Cn3[nH]c(=O)c4ccccc4c3=O)CC2)c1 | > 79 µM (inactive)
Nc1c(C(=O)N/N=C/c2cccnc2)oc2nc(-c3ccco3)cc(-c3ccco3)c12 | > 79 µM (inactive)
COC(=O)Cn1c(=NC(=O)c2cc(-c3cccs3)nc3ccccc23)sc2cc(S(N)(=O)=O)ccc21 | 6.88 µM
CCOC(=O)N1CCC(N2C(=O)c3ccccc3C2Nc2cc(OC)c(OC)c(OC)c2)CC1 (stereo unspecified) | > 79 µM (inactive)
Cc1ccc2nc(SCc3nc4ccccc4c(=O)[nH]3)[nH]c2c1 | > 79 µM (inactive)
CC1(C)Oc2ccc3ccc(=O)oc3c2/C(=C/Nc2ccccn2)C1=O | 10.2 µM
COCCn1cnc2c(c1=O)c1nc3ccccc3nc1n2/N=C/c1cccc(OC)c1 | 38 µM (inactive)
CCCn1c(NC(=O)c2ccccc2)nc2ccccc21 | > 79 µM (inactive)
CSc1nsc(SC)c1C(=O)N1CCN(S(=O)(=O)c2ccc(C)cc2)C1C(C)C (stereo unspecified) | 21.7 µM
CN1C(=O)CSc2ccc(NC(=O)Nc3ccccn3)cc21 | > 79 µM (inactive)
CCOC(=O)C1=C(CC)Nc2ccccc2N=C1NC(=O)c1ccc(S(=O)(=O)N(C)C)cc1 | > 79 µM (inactive)
Cc1ccc(-c2csc(N3CCC[C@@H]3C(=O)NCCn3c(-c4ccncc4)nc4ccccc43)n2)cc1 | > 79 µM (inactive)

Structure (SMILES) | IC50
CCOC(=O)CSc1nnc(CSc2nc3ccccc3c(=O)[nH]2)n1-c1ccccc1 | > 79 µM (inactive)
O=C(COC(=O)Cc1n[nH]c(=O)c2ccccc12)NNC(=O)c1ccc(Br)cc1 | > 79 µM (inactive)
COc1ccccc1C(=O)NCC(=O)N/N=C/c1cc(Br)ccc1OC(=O)/C=C\c1ccco1 | > 79 µM (inactive)
CCOc1ncccc1C(=O)Nc1cccc(-c2nc3cccnc3s2)c1 | > 79 µM (inactive)
CC(=O)Oc1ccc(C(=O)OCC(=O)c2c(N)n(C)c(=O)n(C)c2=O)cc1OC(C)=O | 31.8 µM (inactive)
COc1ccc([N+](=O)[O-])cc1NC(=O)C(C)OC(=O)Cn1[nH]c(=O)c2ccccc2c1=O (stereo unspecified) | 40 µM (inactive)
Nc1c(C(=O)NC2CC2)c2nc3ccccc3nc2n1-c1ccc2c(c1)OCO2 | > 79 µM (inactive)
COc1nnc(-c2ccc(C)c(S(=O)(=O)NCCO)c2)c2ccccc12 | > 79 µM (inactive)
CCOC(=O)N1CCC(NC(=O)c2cc3c(-c4ccccc4F)nn(C)c3s2)CC1 | > 79 µM (inactive)
CCCCN1CC(COCc2ccccc2)Oc2cccc(OCCN3C(=O)[C@@H]4[C@H](C3=O)C3C=C[C@H]4C3)c2S1(=O)=O (stereo partly specified) | > 79 µM (inactive)
O=C(COC(=O)Cc1n[nH]c(=O)c2ccccc12)Nc1ncc(Cl)cc1Cl | > 79 µM (inactive)
COc1ccc(N(Cc2cc3cc(OC)ccc3[nH]c2=O)C(=O)c2cccnc2)cc1 | > 79 µM (inactive)
CC(=O)c1cccc(NC(=O)C(C)OC(=O)Cc2n[nH]c(=O)c3ccccc23)c1 (stereo unspecified) | > 79 µM (inactive)
O=C1NC(Cc2ccc(O)cc2)c2nc3ccc(F)cc3c(=O)n2-c2cc3ccccc3cc21 (stereo unspecified) | 12.4 µM
CC(=O)n1cc(/C=N/NC(=O)c2sc(C)nc2C)c2ccccc21 | > 79 µM (inactive)
O=C1c2ccccc2NC(c2cn[nH]c2-c2ccccc2)N1O (stereo unspecified) | > 79 µM (inactive)
Cn1c(=O)c2[nH]c(NN=Cc3ccc(Br)cc3)nc2n(C)c1=O | > 79 µM (inactive)
COc1cc(C(=O)Nc2nc(OC)c(-c3ccccc3)c(OC)n2)cc(OC)c1OC | > 79 µM (inactive)
CCOC(=O)CSc1nc2ccccc2c(=O)[nH]1 | > 79 µM (inactive)
COc1ccc(OC)c(C(=O)COC(=O)c2ccc([N+](=O)[O-])o2)c1 | > 79 µM (inactive)
O=C(N/N=C\c1ccccn1)C1COc2cc3ccccc3cc2O1 (stereo unspecified) | 8.87 µM
CCOC(=O)c1c(C)[nH]c(C)c1C(=O)COc1ncnc2cc([N+](=O)[O-])ccc12 | 14.6 µM

Structure (SMILES) | IC50
Cc1ccc(NS(=O)(=O)c2cc(-c3n[nH]c(=O)c4ccccc34)ccc2C)cc1 | > 79 µM (inactive)
COc1ccc(-c2nnc3sc(-c4ccco4)nn23)cc1OC | > 79 µM (inactive)
NC(=O)c1nsc(C(=O)N(Cc2ccco2)C(C(=O)NCc2ccccc2)c2ccc(O)cc2)c1N (stereo unspecified) | 10.1 µM
O=C(CN(c1ccc2c(c1)OCCO2)S(=O)(=O)c1ccccc1)Nc1ccc2c(c1)OCO2 | > 79 µM (inactive)
COc1cc(/C=N/NC(=O)c2ccncc2)ccc1OC(=O)c1ccccc1Cl | > 79 µM (inactive)
O=C(CNC(=O)c1ccc(F)cc1)N/N=C/c1cc(Br)ccc1OC(=O)/C=C/c1ccco1 | > 79 µM (inactive)
COc1ccc(Nc2nc(C(=O)N3CCc4cc(OC)c(OC)cc4C3)cs2)cc1 | > 79 µM (inactive)
COc1ccc(S(=O)(=O)N2CC(O)CC2C(=O)OCc2nc3sc(C)c(C)c3c(=O)[nH]2)cc1 (stereo unspecified) | > 79 µM (inactive)
O=C(CN1CCN(Cc2ccccc2)CC1)Nc1ccc([N+](=O)[O-])cc1C(=O)Nc1ccccc1F | 35.6 µM (inactive)
O=c1c2ccccc2oc2nc(-c3ccco3)n(Cc3ccccc3)c(=O)c12 | > 79 µM (inactive)
CCCCCn1c(=O)c(C(=O)NCc2ccccn2)c(O)c2ccccc21 | 7.77 µM
O=C(CCc1nc2ccccc2c(=O)[nH]1)Nc1ccc(F)cc1 | 27.6 µM
COc1cccc(-c2cc3nc(C)c(C)c(N4CCN(C(=O)c5ccoc5)CC4)n3n2)c1 | > 79 µM (inactive)
N#CC1=C(N)Oc2c(O)cc3ccccc3c2C1c1ccsc1 (stereo unspecified) | > 79 µM (inactive)
COc1ccc(C(C(=O)NCc2ccccc2)N(Cc2cccs2)C(=O)c2cnccn2)cc1 (stereo unspecified) | 16.1 µM
COc1ccc(-c2cc(NC=O)c3ncc(-c4ccc(C(C)=O)cc4)n3c2)cn1 | > 79 µM (inactive)
COc1ccc(Cc2n[nH]c(=O)c3ccccc23)cc1OC | > 79 µM (inactive)
CC(C)(C)C(=O)Nc1ccc(C(=O)N/N=C/c2ccccc2OC(=O)c2ccccc2)cc1 | > 79 µM (inactive)
O=c1oc(-c2ccco2)nc2c1cnn2-c1ccccc1 | > 79 µM (inactive)
CCCN1C(=O)c2cc(C(=O)Nc3cccc(C(C)=O)c3)ccc2C1Nc1cccc(C(C)=O)c1 (stereo unspecified) | 11.4 µM
COc1ccc2cc3cc(C(=O)Nc4cc(OC)c(OC)c(OC)c4)oc3nc2c1 | 27.5 µM
O=C(N/N=C/c1cccc2cccnc12)[C@H]1C[C@@H]1c1ccccc1 | 29.2 µM

Source: PubChem BioAssay AID588780 (Sanford-Burnham Center for Chemical Genomics, 2011)
